These results are taken from patent US12240825B2, “Oxexin 1 receptor antagonists” (Heptares Therapeutics Limited, priority 2019, dated 2025).

Each structure is given as a SMILES string. Bounds are passed on as bounds.

In assay [1] the test system is rats. Particulars: sodium lactate infusion and CO2 challenge models; cited from earlier work.
The subject of assay [2] is rats. Particulars: cited from earlier work.
Assay [3] has as its system rats. The conditions noted are these: cited from earlier work. This is another data set of the same source.
In assay [4] the test system is rats. Particulars: intraperitoneal administration; cited from earlier work.
Assay [5] has as its target T1, Human OX2 receptor (Homo sapiens (Human), UniProt O43614). The assay is described as follows: IPone accumulation assay, CHO cells expressing OX2. Format: cell-based. Particulars: antagonism of orexin A (EC80 40 nM)-induced inositol phosphate turnover, read-out: fpKb average OX2 (converted). How it is done: Generation of CHO stable cell lines expressing the human OX1R and OX2R. Stable cell lines for the human OX1R and OX2R receptors were generated through the transfection of CHO cells using the transfection reagent Genejuice (Novagen number 70967) and cDNA coding for either the human OX1R or OX2R. Cells were cultured in Sigma Nutrient Mixture F-12 Ham media (catalog number N6658) supplemented with 10% heat-inactivated FBS. Forty-eight hours after transfection, cells were harvested and placed under geneticin selection by culturing in Sigma Nutrient Mixture F-12 Ham media supplemented with 10% heat-inactivated FBS and geneticin (ThermoFisher Catalog number: 10131035). Selection of the final stable clone for each receptor was made on the basis of receptor expression, assay signal to noise and robustness though increasing passage. Selected clones for the human OX1R and OX2R were then frozen down into liquid nitrogen using Cell Freezing Medium-DMSO (Sigma-Aldrich catalog number: C6164). IPone accumulation assay. A CHO cell line stably expressing either human OX1 or OX2 receptor was used with the IPone HTRF assay kit (CisBio: Part #62[…]) to measure receptor activation. The assay was optimised to measure the ability (potency; fpKb) of antagonists to reduce agonist (orexin A)-induced inositol phosphate turnover. Briefly, cells were plated onto half area 96-well white walled plates at a density of 12,500 cells/well. Sixteen hours post-plating cell growth media was replaced with antagonist concentration-response curve diluted in stimulation buffer (supplied with the kit). Cells were incubated in a humidified incubator (37° C.) for 30 min before an EC80 challenge concentration ( 20 nM (OX1) and 40 nM (OX2)) of orexin A (Tocris catalogue number 1455). After 30 min stimulation in a humidified incubator (37° C.) the assay was terminated by the addition of detection mixture as per manufacturer's instructions. The concentration of compound which reduced orexin-A stimulated turnover of inositol phosphates by 50% (IC50) was calculated by fitting to a four parameter sigmoidal dose response curve. The IC50 values were converted to fpKB values using the orexin A pEC50 value estimated on each plate as well as the challenge concentration interpolated from the orexin A control curve.

The target of assay [6] is T2, Human OX1 receptor (Homo sapiens (Human), UniProt O43613). The assay is described as follows: IPone accumulation assay, CHO cells expressing OX1. It is filed as cell-based. Particulars: antagonism of orexin A (EC80 ~20 nM)-induced inositol phosphate turnover, read-out: fpKb average OX1 (converted). How it is done: Generation of CHO stable cell lines expressing the human OX1R and OX2R. Stable cell lines for the human OX1R and OX2R receptors were generated through the transfection of CHO cells using the transfection reagent Genejuice (Novagen number 70967) and cDNA coding for either the human OX1R or OX2R. Cells were cultured in Sigma Nutrient Mixture F-12 Ham media (catalog number N6658) supplemented with 10% heat-inactivated FBS. Forty-eight hours after transfection, cells were harvested and placed under geneticin selection by culturing in Sigma Nutrient Mixture F-12 Ham media supplemented with 10% heat-inactivated FBS and geneticin (ThermoFisher Catalog number: 10131035). Selection of the final stable clone for each receptor was made on the basis of receptor expression, assay signal to noise and robustness though increasing passage. Selected clones for the human OX1R and OX2R were then frozen down into liquid nitrogen using Cell Freezing Medium-DMSO (Sigma-Aldrich catalog number: C6164).
IPone accumulation assay. A CHO cell line stably expressing either human OX1 or OX2 receptor was used with the IPone HTRF assay kit (CisBio: Part #62IPAPEJ) to measure receptor activation. The assay was optimised to measure the ability (potency; fpKb) of antagonists to reduce agonist (orexin A)-induced inositol phosphate turnover. Briefly, cells were plated onto half area 96-well white walled plates at a density of 12,500 cells/well. Sixteen hours post-plating cell growth media was replaced with antagonist concentration-response curve diluted in stimulation buffer (supplied with the kit). Cells were incubated in a humidified incubator (37° C.) for 30 min before an EC80 challenge concentration (˜20 nM (OX1) and 40 nM (OX2)) of orexin A (Tocris catalogue number 1455). After 30 min stimulation in a humidified incubator (37° C.) the assay was terminated by the addition of detection mixture as per manufacturer's instructions. The concentration of compound which reduced orexin-A stimulated turnover of inositol phosphates by 50% (IC50) was calculated by fitting to a four parameter sigmoidal dose response curve. The IC50 values were converted to fpKB values using the orexin A pEC50 value estimated on each plate as well as the challenge concentration interpolated from the orexin A control curve.

The target of assay [7] is T2, Human OX1 receptor. Briefly: [3H]-radioligand binding assay, OX1. Particulars: competition binding, membranes of SF21 cells, Ki by Cheng-Prusoff. From the text:
(§1) Cloning, Baculovirus generation, large-scale infection of SF21 cells and membrane preparation. Human OX1 or OX2 receptor were cloned into Invitrogen's (ThermoFisher Scientific, UK) Bac-to-Bac Baculovirus Expression System. P0 baculovirus was generated by transfecting SF9 cells with bacmid DNA using Cellfectin® II transfection reagent (ThermoFisher Scientific, UK, Catalog number 10362-100). Following P0 generation P1 virus was then generated ready for large scale infection and membrane preparation. SF21 cells were grown in expression medium ESF921 (Expression Systems, USA, catalog number 96-001-01) supplemented with 10% heat-inactivated FBS and 1% Pen/Strep and were infected at a cell density of 2.5×10^6 cells/mL and a multiplicity of infection of 1.0 for both human OX1R and OX2R. Incubation was carried out at over 48 h in a shaking incubator set at 27° C. The cell culture was then centrifuged at 2,500 rcf for 10 min at 4° C. The pellets were resuspended in cold PBS supplemented with Roche's Complete EDTA-free protease inhibitor cocktail tablets (Roche Applied Sciences, catalog number 05056489001), 1 mM PMSF and 1 mM EDTA. The resuspended cell paste was then centrifuged at 3,273 rcf for 12 min at 4° C. The supernatant was discarded and the pellet frozen at −80° C. The cell pellet from a 4 L culture was resuspended in buffer containing 50 mM HEPES pH 7.5, 150 mM NaCl, 8 Roche EDTA-Free protease inhibitor cocktail tablets and 1 mM PMSF. The suspension was left stirring at rt for 1 h and then homogenised for 90 s at 9,500 rpm using a VDI 25 (VWR, USA) homogeniser. The cells were then lysed using a Microfluidiser processor M-110L Pneumatic (Microfluidics, USA) at 60 PSI and membranes collected by ultracentrifugation at 204.7 k×g for 1 h. The supernatant was discarded and the pellet was resuspended and homogenised in 90 s at 9,500 rpm in 50 mL (25 mL for each 2 L culture) of buffer containing 50 mM Hepes pH 7.5, 150 mM NaCl, 3 Roche EDTA-free protease inhibitor cocktail tablets and 1 mM PMSF. The resulting membranes were then stored at −80° C.
(§2) [^3H]-radioligand binding assay. After thawing, membrane homogenates were resuspended in the binding buffer (8.5 mM HEPES, pH 7.4, 1.3 mM CaCl2, 1.2 mM MgSO4, 118 mM NaCl, 4.7 mM KCl, 4 mM NaHCO3, 1.2 mM KH2PO4, 11 mM glucose) to a final assay concentration of 6.4 μg (OX1) or 1.4 μg (OX2) protein per well. Saturation isotherms were determined by the addition of various concentrations (0-30 nM) of [^3H]-4-(2,6-difluoro-4-methoxybenzyl)-2-(5,6-dimethoxypyridin-3-yl)-2H-1,2,4-benzothiadiazin-3(4H)-one 1,1-dioxide (Christopher et al, MedChemComm., 2015, 6, 947-955) in a total reaction volume of 250 μL for 90 min at rt. At the end of the incubation, membranes were filtered onto a 96-well GF/B filter pre-incubated with 0.5% polyethylenimine, with a Tomtec cell harvester and washed 5 times with 0.5 mL distilled water. Non-specific binding (NSB) was measured in the presence of 3.33 μM [4-(5-chloro-1,3-benzoxazol-2-yl)-7-methyl-1,4-diazepan-1-yl][5-methyl-2-(2H-1,2,3-triazol-2-yl)phenyl]methanone (Wertz et al, Angew. Chem. Int. Ed., 2011, 50, 11511-11515). Radioactivity on the filter was counted (1 min) on a Microbeta radiometric plate counter (Perkin Elmer) after addition of 50 μL of scintillation fluid (LabLogic: Part #SG-BXX-14). […] IC50 values were derived from the inhibition curve and the equilibrium dissociation constant (Ki) values were calculated using the Cheng-Prusoff equation.

In assay [8] the target is T1, Human OX2 receptor. The assay is described as follows: [3H]-radioligand binding assay, OX2. The conditions noted are these: competition binding, membranes of SF21 cells, Ki by Cheng-Prusoff.
Text: as §1, §2

T2 sequence (O43613 whole entry): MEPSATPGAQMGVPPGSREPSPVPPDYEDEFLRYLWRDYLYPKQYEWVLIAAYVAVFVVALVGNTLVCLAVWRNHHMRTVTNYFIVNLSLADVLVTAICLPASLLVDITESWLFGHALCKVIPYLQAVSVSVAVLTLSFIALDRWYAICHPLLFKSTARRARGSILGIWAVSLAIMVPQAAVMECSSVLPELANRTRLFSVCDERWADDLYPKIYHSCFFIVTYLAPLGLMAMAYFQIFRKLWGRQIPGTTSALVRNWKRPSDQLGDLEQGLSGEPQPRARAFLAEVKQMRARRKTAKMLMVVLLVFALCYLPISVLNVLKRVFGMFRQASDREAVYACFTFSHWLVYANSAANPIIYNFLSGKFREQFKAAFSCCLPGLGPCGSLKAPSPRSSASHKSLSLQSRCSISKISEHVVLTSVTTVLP
T1 sequence (O43614 whole entry): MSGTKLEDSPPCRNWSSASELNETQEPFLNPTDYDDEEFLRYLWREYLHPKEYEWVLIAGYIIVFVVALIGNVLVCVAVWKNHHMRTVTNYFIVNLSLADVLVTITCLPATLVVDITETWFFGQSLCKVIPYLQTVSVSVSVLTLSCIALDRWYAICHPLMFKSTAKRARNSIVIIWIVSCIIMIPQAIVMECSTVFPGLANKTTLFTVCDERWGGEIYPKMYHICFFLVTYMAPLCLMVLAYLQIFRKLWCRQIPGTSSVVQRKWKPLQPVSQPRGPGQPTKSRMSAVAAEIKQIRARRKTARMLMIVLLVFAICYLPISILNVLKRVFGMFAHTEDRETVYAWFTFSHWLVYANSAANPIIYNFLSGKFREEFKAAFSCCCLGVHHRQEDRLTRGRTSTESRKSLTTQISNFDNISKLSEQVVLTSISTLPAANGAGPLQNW

Take `O=C(c1cccc(F)c1-c1ncccn1)N1[C@@H]2CC[C@H]1[C@H](Nc1cnc(C(F)(F)F)cn1)C2` [JNJ-54717793]: the “panic-like behaviours and cardiovascular responses” value in assay [1] is on record as “attenuated”.
Take `Cc1nc2ccc(NC(=O)Nc3ccnc4cccnc34)cc2o1` [SB-334867]: in assay [2], the alcohol self-administration result is reported as “decreases”. The nicotine self-administration entry in assay [3] is reported as “decreases”. Besides, the opiate withdrawal symptoms result in assay [4] is given as “significantly reduce”.
In the case of `COC(=O)Nc1ccc(-n2nccn2)c(C(=O)N[C@H]2CCC[C@@H]2COc2ccc(F)cc2)n1` [Example 10, methyl N-[6-[[(1S,2S)-2-[(4-fluorophenoxy)methyl]cyclopentyl]carbamoyl]-5-(triazol-2-yl)-2-pyridyl]carbamate], the Kb was greater than 794 nM in assay [5] and 79.4 nM in assay [6]. In addition, in assay [7], the “pKi average OX1” value came to 8.1. Further, the “pKi average OX2” value in assay [8] is recorded as less than 5.9.
On to `Nc1ccc(-c2ncc(F)cn2)c(C(=O)N[C@H]2CCC[C@@H]2COc2ccc(F)cc2)n1` [Example 22, 6-amino-N-[(1S,2S)-2-[(4-fluorophenoxy)methyl]cyclopentyl]-3-(5-fluoropyrimidin-2-yl)pyridine-2-carboxamide], for which the Kb is greater than 1000 nM in assay [5] and 7.94 nM in assay [6]. Moreover, the “pKi average OX1” value in assay [7] was found to be 8.5. For the same molecule, in assay [8], the “pKi average OX2” value amounted to 6.3.
Regarding `CC(=O)Nc1ccc(-n2nccn2)c(C(=O)N[C@H]2CCC[C@@H]2COc2ccc(F)cc2F)n1` [Example 17, 6-acetamido-N-[(1S,2S)-2-[(2,4-difluorophenoxy)methyl]cyclopentyl]-3-(triazol-2-yl)pyridine-2-carboxamide], the Kb in assay [5] was greater than 63.1 nM; in assay [6] it was 50.1 nM. Also, in assay [7], the “pKi average OX1” value amounted to 9.1. The “pKi average OX2” value in assay [8] came out at 5.4.
For the molecule `CC(=O)Nc1ccc(-n2nccn2)c(C(=O)N(C)[C@H]2CCC[C@@H]2COc2ccc(F)cc2)n1` [Example 5, 6-acetamido-N-[(1S,2S)-2-[(4-fluorophenoxy)methyl]cyclopentyl]-N-methyl-3-(triazol-2-yl)pyridine-2-carboxamide], the figures for the Kb in assay [5] and in assay [6] were greater than 1000 nM and 3.16 nM, respectively. Further, the “pKi average OX1” value in assay [7] was found to be 8.5. Besides, in assay [8], the “pKi average OX2” value is recorded as 6.0.
As to `CC(=O)Nc1ccc(-c2ncccn2)c(C(=O)N[C@H]2CCC[C@@H]2COc2ccc(F)cc2)c1F` [Example 2, 3-acetamido-2-fluoro-N-[(1S,2S)-2-[(4-fluorophenoxy)methyl]cyclopentyl]-6-pyrimidin-2-yl-benzamide], the Kb is greater than 2510 nM in assay [5] and 50.1 nM in assay [6]. The “pKi average OX1” value in assay [7] is reported as 7.7. Besides, the “pKi average OX2” value in assay [8] stood at 5.6.
As to `[2H]C([2H])(Oc1ccc(F)cc1)[C@H]1CCC[C@@H]1NC(=O)c1nc(NC(C)=O)ccc1-n1nccn1` [Example 8, 6-acetamido-N-[(1S,2S)-2-[dideuterio-(4-fluorophenoxy)methyl]cyclopentyl]-3-(triazol-2-yl)pyridine-2-carboxamide], the Kb in assay [5] is greater than 794 nM; in assay [6], 15.8 nM. The “pKi average OX1” value in assay [7] was found to be 8.4. Also, in assay [8], the “pKi average OX2” value worked out at 5.8.
Taken in the same sequence, the figures for `CC(=O)Nc1cc(C(=O)N[C@H]2CCC[C@@H]2COc2ccc(F)cc2)c(-c2ncccn2)cn1` [Example 24, 2-acetamido-N-[(1S,2S)-2-[(4-fluorophenoxy)methyl]cyclopentyl]-5-pyrimidin-2-yl-pyridine-4-carboxamide] were greater than 398 nM, 1.26 nM, 8.3 and 6.6.
